Data as given in ChEMBL document CHEMBL1201862, “PubChem BioAssay data set” (2004).
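96-well plates; 48 h exposure; 5 concentrations. Endpoints by linear interpolation between flanking doses. Not reached: highest tested concentration assigned. Here, GI50 denotes the concentration required for 50% inhibition of growth.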 Active and inactive are the calls of the source. Rule as the data show it: active = GI50 up to about 1.1 µM and inactive = higher.

Tests used:
Assay in all cases: NCI anticancer screen, dose series, 48 h
[1] = test system: HCT-116
[2] = test system: HT-29
[3] = test system: M14
[4] = test system: MCF7
[5] = test system: MDA-MB-231
[6] = test system: Malme-3M
[7] = test system: NCI-H23
[8] = test system: OVCAR-3
[9] = test system: OVCAR-4
[10] = test system: PC-3
[11] = test system: SF-268
[12] = test system: SF-295
[13] = test system: SF-539
[14] = test system: SK-MEL-5
[15] = test system: U-251
[16] = test system: NCI-H522
[17] = test system: SK-OV-3
[18] = test system: SNB-75
[19] = test system: UACC-62
[20] = test system: T47D

Compound	GI50 [1]	GI50 [2]	GI50 [3]	GI50 [4]	GI50 [5]	GI50 [6]	GI50 [7]	GI50 [8]	GI50 [9]	GI50 [10]	GI50 [11]	GI50 [12]	GI50 [13]	GI50 [14]	GI50 [15]	GI50 [16]	GI50 [17]	GI50 [18]	GI50 [19]	GI50 [20]
O=c1cc(NNc2ccc3ccccc3c2)[nH]c(=S)[nH]1	39.9 µM (inactive)	16.4 µM (inactive)	33.2 µM (inactive)	4.31 µM (inactive)	42.8 µM (inactive)	63.7 µM (inactive)	> 100 µM (inactive)	19.3 µM (inactive)	68.7 µM (inactive)	19.8 µM (inactive)	21.1 µM (inactive)	61.9 µM (inactive)	30.3 µM (inactive)	> 100 µM (inactive)	27 µM (inactive)					
Cc1nc2c(c(=O)[nH]1)S/C(=C(/C#N)c1nc3ccccc3[nH]1)N2c1ccccc1	> 100 µM (inactive)	> 100 µM (inactive)	> 100 µM (inactive)			> 100 µM (inactive)	> 100 µM (inactive)	> 100 µM (inactive)	> 100 µM (inactive)		> 100 µM (inactive)	> 100 µM (inactive)	> 100 µM (inactive)	> 100 µM (inactive)	> 100 µM (inactive)	> 100 µM (inactive)	> 100 µM (inactive)	> 100 µM (inactive)	> 100 µM (inactive)	
O=C1/C(=c2\s/c(=C\c3ccccc3)c(=O)n2-c2ccccc2)SC(=S)N1c1ccccc1	58.9 µM (inactive)	> 100 µM (inactive)	> 100 µM (inactive)	53.5 µM (inactive)	20.5 µM (inactive)	28.7 µM (inactive)	76.7 µM (inactive)	27.2 µM (inactive)	29.4 µM (inactive)	55 µM (inactive)	41.8 µM (inactive)	30.3 µM (inactive)	21.5 µM (inactive)	53.2 µM (inactive)	23.4 µM (inactive)		21.9 µM (inactive)	19.4 µM (inactive)	35.6 µM (inactive)	
O=C(/C=C/c1cc(F)ccc1F)OCCc1ccccc1	> 100 µM (inactive)	43 µM (inactive)	> 100 µM (inactive)	42.2 µM (inactive)	63 µM (inactive)	> 100 µM (inactive)	> 100 µM (inactive)		0.933 µM (active)	49.4 µM (inactive)	> 100 µM (inactive)		88.5 µM (inactive)	29.2 µM (inactive)	33 µM (inactive)	> 100 µM (inactive)		83.6 µM (inactive)	86.5 µM (inactive)	
CSc1nc2c(ncn2C2OCC(O)C(O)C2O)c(=O)[nH]1 (stereo unspecified)	> 100 µM (inactive)	> 100 µM (inactive)		> 100 µM (inactive)		> 100 µM (inactive)	> 100 µM (inactive)	> 100 µM (inactive)	> 100 µM (inactive)		> 100 µM (inactive)	> 100 µM (inactive)	> 100 µM (inactive)	> 100 µM (inactive)	> 100 µM (inactive)	> 100 µM (inactive)	> 100 µM (inactive)	> 100 µM (inactive)	> 100 µM (inactive)	
Cc1ccc(NP(=O)(Oc2ccccc2)N(CCCl)CCCl)cc1 (stereo unspecified)	21.2 µM (inactive)	26.1 µM (inactive)	> 100 µM (inactive)			92.7 µM (inactive)	61.5 µM (inactive)	54.6 µM (inactive)	51.3 µM (inactive)		80.5 µM (inactive)	67 µM (inactive)	> 100 µM (inactive)	74.5 µM (inactive)	> 100 µM (inactive)	> 100 µM (inactive)	> 100 µM (inactive)	> 100 µM (inactive)	> 100 µM (inactive)	
O=C(CN1CCCCC1)c1ccc2[nH]c(=O)oc2c1	> 100 µM (inactive)	> 100 µM (inactive)	> 100 µM (inactive)	> 100 µM (inactive)	> 100 µM (inactive)	> 100 µM (inactive)	> 100 µM (inactive)	> 100 µM (inactive)		> 100 µM (inactive)	> 100 µM (inactive)	> 100 µM (inactive)	> 100 µM (inactive)	> 100 µM (inactive)	> 100 µM (inactive)		> 100 µM (inactive)	0.957 µM (active)	> 100 µM (inactive)	
CCOC(=O)N1[C@@H]2CCC[C@@H]2C(=O)[C@@H]2CCC[C@@H]21	> 100 µM (inactive)	> 100 µM (inactive)	> 100 µM (inactive)		> 100 µM (inactive)		> 100 µM (inactive)	> 100 µM (inactive)	> 100 µM (inactive)	> 100 µM (inactive)	> 100 µM (inactive)			> 100 µM (inactive)	> 100 µM (inactive)		> 100 µM (inactive)	> 100 µM (inactive)	> 100 µM (inactive)	> 100 µM (inactive)
c1ccc(C2=NOC3C4CCC(C4)C23)cc1 (stereo unspecified)	> 100 µM (inactive)	> 100 µM (inactive)	> 100 µM (inactive)			> 100 µM (inactive)	> 100 µM (inactive)	> 100 µM (inactive)	> 100 µM (inactive)		> 100 µM (inactive)	> 100 µM (inactive)	> 100 µM (inactive)	> 100 µM (inactive)	> 100 µM (inactive)	> 100 µM (inactive)	> 100 µM (inactive)	> 100 µM (inactive)	> 100 µM (inactive)	
O=C(CC1(O)C(=O)Nc2ccccc21)c1ccc(O)cc1O (stereo unspecified)	> 100 µM (inactive)	> 100 µM (inactive)	> 100 µM (inactive)			> 100 µM (inactive)	> 100 µM (inactive)	> 100 µM (inactive)	> 100 µM (inactive)		> 100 µM (inactive)	> 100 µM (inactive)	> 100 µM (inactive)	> 100 µM (inactive)		> 100 µM (inactive)	> 100 µM (inactive)	> 100 µM (inactive)	> 100 µM (inactive)	
COc1ccc(/C=C/C(=O)C(C)C)cc1	49.8 µM (inactive)	29 µM (inactive)	28.3 µM (inactive)			42 µM (inactive)	32.6 µM (inactive)	25.9 µM (inactive)	47.9 µM (inactive)		42.3 µM (inactive)	31.6 µM (inactive)	46.2 µM (inactive)	48.1 µM (inactive)	34.1 µM (inactive)	20.6 µM (inactive)	31 µM (inactive)	40.6 µM (inactive)	45 µM (inactive)	
COC(=O)/C(=N/NC(N)=O)C(C(=O)OC)C(=O)C(=O)Nc1ccc(Cl)cc1 (stereo unspecified)	> 70.6 µM (inactive)	> 100 µM (inactive)	> 100 µM (inactive)			> 100 µM (inactive)	> 100 µM (inactive)	> 100 µM (inactive)	> 100 µM (inactive)			> 100 µM (inactive)	> 100 µM (inactive)	> 100 µM (inactive)	> 100 µM (inactive)	> 100 µM (inactive)	> 100 µM (inactive)	> 100 µM (inactive)	> 100 µM (inactive)	
O=c1cc(-c2ccccc2)[nH]c2cc(F)cc(F)c12	36.2 µM (inactive)	36.6 µM (inactive)	30.3 µM (inactive)			16.7 µM (inactive)	48.6 µM (inactive)		> 100 µM (inactive)		> 100 µM (inactive)	25.1 µM (inactive)	24.4 µM (inactive)	10.1 µM (inactive)	29.1 µM (inactive)	11.9 µM (inactive)	19.7 µM (inactive)	14.8 µM (inactive)	16.1 µM (inactive)	
CCCCCCCCCC(=O)OCC1OC(n2cc(F)c(=O)[nH]c2=O)C(N)C(OC(=O)CCCCCCCCC)C1O (stereo unspecified)	18.2 µM (inactive)	17.5 µM (inactive)	19.2 µM (inactive)			16.9 µM (inactive)	18.7 µM (inactive)	18.6 µM (inactive)	15.8 µM (inactive)		20.2 µM (inactive)	17.8 µM (inactive)	18.4 µM (inactive)	22.6 µM (inactive)	17.1 µM (inactive)	14.6 µM (inactive)	60 µM (inactive)	16.3 µM (inactive)	17.9 µM (inactive)	
Oc1cc(-c2ccc3ccccc3c2)nc2ncccc12		4.16 µM (inactive)	7.13 µM (inactive)	5.77 µM (inactive)	9.02 µM (inactive)	13.1 µM (inactive)	10.7 µM (inactive)		12.1 µM (inactive)		28.1 µM (inactive)		6.95 µM (inactive)			4.02 µM (inactive)	19.6 µM (inactive)	11.5 µM (inactive)	5.41 µM (inactive)	11.6 µM (inactive)
NC(=O)CN1C=CCC(C(N)=O)=C1 [CARICOTAMIDE]	> 100 µM (inactive)	> 100 µM (inactive)	> 100 µM (inactive)	> 100 µM (inactive)		> 100 µM (inactive)	> 100 µM (inactive)	> 100 µM (inactive)	> 100 µM (inactive)	> 100 µM (inactive)	> 100 µM (inactive)	> 100 µM (inactive)	> 100 µM (inactive)	> 100 µM (inactive)	> 100 µM (inactive)	> 100 µM (inactive)	> 100 µM (inactive)	> 100 µM (inactive)	> 100 µM (inactive)	> 100 µM (inactive)
C/C=C1/C(=O)O[C@]23C=C[C@@H]4C(C(=O)OC)=CO[C@H](O[C@@H]12)[C@@H]43 [PLUMERICIN]	0.451 µM (active)	2.18 µM (inactive)		0.832 µM (active)		1.93 µM (inactive)	0.916 µM (active)	0.861 µM (active)	1.52 µM (inactive)		1.28 µM (inactive)	2.46 µM (inactive)	2.34 µM (inactive)	2.12 µM (inactive)	2.7 µM (inactive)	0.353 µM (active)	3.93 µM (inactive)	3.34 µM (inactive)	0.815 µM (active)	
